We go through one molecule from patent publication US20260248809A1, “ESTRADIOL PRODRUGS AND METHODS OF USE THEREOF” (UNIVERSITY OF MARYLAND, BALTIMORE, priority 2022, published 2026).

Molecules are shown by their SMILES. Entries after “also recorded” stand apart in the source; their conditions may differ.

In data set [1] the test system is galanin expression. Particulars: rat, in vivo; cited from earlier work.
For data set [2], the system named is estrogen or other hormone receptors. Particulars: cited from earlier work.
A short description of data set [3]: in vivo. The note with it: male, C57BL/6J, mouse. The text has this: Although these findings support a critical role for E2, and not testosterone itself, as the biologically active hormone mediating stress susceptibility in hypogonadal male mice, E2 replacement therapy cannot be considered as a viable treatment in human male veteran populations due to its peripheral side effects, including gynecomastia and erectile dysfunction. However, isolating the effects of E2 to the central nervous system would provide a viable therapy. […] As a next step in advancing this treatment, the oral bioavailability of DHED was assessed, comparing oral versus intravenous delivery routes.
Pharmacokinetic (PK) assessment of prodrugs. […] Generally, this PK study and analysis proceeds similarly to previous studies aimed at assessing the oral bioavailability of (2R,6R)-HNK. […] PK is performed using tandem liquid chromatography-mass spectrometry (LC-MS/MS) for quantification. […] Statistical significance is calculated using the unpaired t-test or Mann-Whitney U test for comparing AUC values. […] E2 levels are measured with liquid chromatography tandem mass spectrometry (LC-MS/MS) using standard methods. […] If levels of E2 are too low to be quantified via this measure, and to distinguish naturally-produced from DHED prodrug-produced E2, E2 levels can be quantitated at the femtomole level utilizing deuterium-labelled E2 standards and triple quadrupole mass spectrometry.

In data set [4] the test system is male mice. Briefly: Subthreshold social defeat stress (SSDS) followed by social interaction test. The data set is classed as in vivo, mouse. Particulars: chronic treatment (silastic implant or minipump); orchiectomized male mice + SSDS. The method, then: (§1) Subthreshold social defeat stress: Retired CD1 breeders are singly housed and used as aggressors. Experimental mice are introduced to the home cage of an aggressor for 2 min to initiate the physical attack phase. Afterward, mice are transferred and housed on the opposite side of the aggressor, in the same cage separated by a perforated Plexiglass divider for 15 mins in order to maintain sensory contact. This process is repeated 3 times over a period of ~50 min.
(§2) Social Interaction: Mice are placed in a rectangular box (40 cm length×30 cm width×35 cm height; Stoelting, IL) divided into three compartments (two equal-sized end-chambers and a middle chamber) for five minute habituation phase (10-15 lux). After the habituation phase, two small wire cages are introduced into the two end chambers, one containing an unfamiliar, non-aggressive CD1 mouse and the other remaining empty. The amount of time mice spent sniffing each cage during the five-min test is assessed using CleverSys tracking software (CleverSys, Inc, Reston VA, USA).
(§3) For the chronic administration paradigms, silastic tubes (1.02 mm inner diameter×2.16 mm outer diameter) were filled with testosterone (10 mm) or 17β-Estradiol (E2; 1,3 and 10 mm; Sigma-Aldrich, St. Louis, MO, USA). Silastic implants were primed in 0.9% saline at 37° C. overnight prior to their subcutaneous use. Letrozole (1 mg/kg/day; Sigma-Aldrich, St. Louis, MO, USA) was dissolved in propylene glycol (MP Biomedicals, Santa Ana, CA, USA) and administered through ALZET minipumps (Model 1002, 0.25 μl/hour, 14 days; Cupertino, CA, USA). DHED (synthesized using previously described methods) was dissolved in 0.9% saline and administered through ALZET minipumps (Model 1002, 0.25 μl/hour, 14 days; Cupertino, CA, USA) at a dose of […]. Flutamide was administered through 1.5 mg slow-release subcutaneous pellets (Innovative Research of America, Sarasota, FL, USA). For acute administration, 17β-Estradiol (E2; 10 and […]) was dissolved in sesame oil (4 ml/kg, s.c.; Sigma-Aldrich, St. Louis, MO, USA).
(§4) Retired CD1 breeders were singly housed and used as aggressors. Two days prior to the start of the experiment, experimental mice were also singly housed. The stress procedure was performed using previously described methods. Briefly, experimental mice were introduced to the home cage of an aggressor for 2 min to initiate the physical attack phase. Afterward, mice were transferred and housed on the opposite side of the aggressor, in the same cage separated by a perforated Plexiglass divider for 15 mins in order to maintain sensory contact. This process was repeated 3 times over a period of ~50 min. Following the completion of the third cycle, mice were placed back in their home cages.
(§5) Acute E2 was administered 45 min prior to the initiation of stress or 5 min after the completion of stress. For the optogenetic stimulation, ChR2 and YFP-injected mice received a 4 Hz, 5 ms pulse width, 10-15 mW 470 nm light stimulation for 45 min prior to the initiation of stress. This stimulation paradigm was shown previously to increase synaptic transmission. The optogenetic set up consisted of an LED driver paired with a fiber-coupled LED light source attached to a bifurcated optogenetic path cable (400 μm, 0.49 NA; ThorLabs, Newton NJ, USA).
as §2, with “Social interaction was performed 24 hours following subthreshold social defeat or inescapable foot-shock stress. For the habituation phase, mice were” for “Social Interaction: Mice are”, “five minutes” for “five minute habituation phase”, “cages were” for “cages are”, “test was” for “test is”

Data set [5] is described as follows: Body, testis and seminal vesicle weights after hormonal treatments. The data set is classed as in vivo, mouse. The method, then: as §3
Subcutaneous implantations were performed during the same time as the orchiectomies. The surgical area was thoroughly cleaned with Betadine solution (10% povidone-iodine surgical scrub) followed by 70% ethanol. A small, approximately 1-cm incision was made between the scapulae using a pair of small sterile surgical scissors. Hemostats were then inserted and spread laterally to the incision to create a cavity in the subcutaneous space in which ALZET mini-osmotic pumps or silastic implants were inserted for continuous drug/vehicle delivery. The skin was closed with suturing.

The subject of data set [6] is C3 expression. Particulars: rat, in vivo; cited from earlier work.
In data set [7] the test system is rodents. The note with it: high doses administered orally to rodents; cited from earlier work.
Data set [8] deals with progesterone receptor (PR) expression. Particulars: rat, in vivo; cited from earlier work.
Data set [9] deals with male mice. The experiment in a line: Subthreshold social defeat stress followed by female urine sniffing test (anhedonia). Particulars: chronic treatment (silastic implant or minipump); orchiectomized male mice + SSDS. The data set is classed as in vivo, mouse. The protocol:
as §1
Female Urine Preference Test: is performed 24 hours after the social interaction test as using previously described methods. The amount of time mice spent interacting with a cotton-tipped applicator soaked in either fresh male or female mouse urine during a total of 3 minutes is analyzed by an experimenter blind to the experimental groups.
as §3, §4, §5
FUST procedure was performed 24 hours after the social interaction test and 48 hours after stress. FUST was performed using previously described methods. The amount of time mice spent interacting with a cotton-tipped applicator soaked in either fresh male or female mouse urine during a total of 3 minutes was analyzed by an experimenter blind to the experimental groups.

One may read the bioavailability as dose-corrected exposure relative to a reference, in per cent. Read a low bioavailability as little systemic uptake. On to `C[C@]12CC[C@H]3[C@@H](CCC4=CC(=O)C=C[C@@]43O)[C@@H]1CC[C@@H]2O` [DHED, 10β,17β-dihydroxyestra-1,4-dien-3-one], for which, in data set [1], the pituitary galanin expression result is reported as “does not change”. Moreover, the “effects on estrogen or other hormone receptors throughout the body” value in data set [2] is listed as “no effects on estrogen or other hormone receptors”. The molecule further had a bioavailability in data set [3] (oral bioavailability measured in brain) of less than 2%. In addition, the bioavailability in data set [3] (oral bioavailability measured in plasma) stood at 10%. Besides, the “stress-induced social interaction deficits” value in [4] is “reversed the social interaction and hedonic deficits”. In [5] (chronic treatment), the body weight entry was “did not increase; also recorded: no difference” and the seminal vesicle weight result is reported as “did not increase; also recorded: no difference”. The “relative seminal vesicle weights” value in data set [5] (s.c. treatment, compared to vehicle (saline) control) is given as “unaffected”. Also, the “uterus C3 expression” value in data set [6] is listed as “does not change”. Also, the “efficacy in models of hot flushes” value in data set [7] was “E2-like efficacy”. Moreover, the “medial preoptic area PR expression” value in [8] is “increases medial preoptic area PR expression”. In addition, the stress-induced anhedonia result in [9] was “reversed the social interaction and hedonic deficits”.
